{"source": "patent US20130029923A1", "about": "“Materials and Methods for Prevention and Treatment of Viral Infections” (priority 2009, published 2013)", "tested_on": "influenza virus H1N1 (A/Victoria/07159200/07), oseltamivir-resistant strain", "type": "cell-based, human influenza virus"}
{"smiles": "C[C@@H]1O[C@@H](OC[C@H]2O[C@@H](OCCc3ccc(O)c(O)c3)[C@H](O)[C@@H](O)[C@@H]2OC(=O)/C=C/c2ccc(O)c(O)c2)[C@H](O)[C@H](O)[C@H]1O", "note": "[Compound A1, forsythoside A]", "values": [{"measurement": "suppression of virus replication (TCID50) compared with DMSO-treated cells", "result": "~3", "unit": "fold"}]}
